Measured values taken from US20130072385A1, “METHODS FOR DELAYING BUD BREAK BY APPLYING ABA ANALOGS” (priority 2011, published 2013).

What was measured:
PF-11 nectarine trees [1] = experiment: Fall foliar spray of PF-11 nectarine trees, bud break the following spring; assay type: in vivo; conditions: 10,000 ppm in 0.1% Brij 98, fall foliar application; April 8
Method: (§1) A study was conducted to determine the effect of spraying nectarine trees with ABA or ABA analogs in the fall on bud break the following spring. Mature PF-11 nectarine trees were sprayed to drip with surfactant alone or surfactant and ABA or ABA analog on Oct. 19, 2009. Trees were sprayed with approximately 500 ml (20.5 grams ABA analog/acre) applied to each of 6 trees per treatment arranged in a randomized complete block design. The following spring bud break on pre-selected branches was monitored.

PF-11 nectarine trees [2] = experiment: Fall foliar spray of PF-11 nectarine trees, fruit number per tree the following spring; assay type: in vivo; conditions: 10,000 ppm in 0.1% Brij 98, fall foliar application; June 10
Method: as §1

Seyval Blanc grapevines = experiment: Soil drench of potted grapevines near the time of bud break, Seyval Blanc; assay type: in vivo
Method: (§2) A study was conducted to determine the effect of ABA applied to the soil of potted grapevines near the time of bud break. Eco-dormant bare-root Seyval Blanc and Canadice grapevines were purchased from Concord Nurseries, North Collins, N.Y. Vines were planted in pots of Promix potting mixture and held in a 5° C. dark chamber prior to treatment. Plants were moved from the 5° C. chamber to a greenhouse set to 20° C. night/25° C. day with a 12 hour light and 12 hour dark light cycle to promote bud break. One group of 5 plants was treated with 250 ml of 1000 ppm ABA (250 mg) as a soil drench 2 days after moving the vines to warm conditions. Another group of vines was treated 6 days after warming and another group of 5 plants was treated 10 days after warming. With the Seyval Blanc grapevines one group of 5 plants was treated at all 3 timings 2, 6, and 10 days after warming (750 mg total). Another group of 5 vines was not treated and acted as an untreated control. […]

Concord grapevines = experiment: Fall soil drench of potted Concord grapevines, bud break the following spring; assay type: in vivo; conditions: 1000 ppm (1000 mg/pot) fall soil drench
Method: A study was conducted to determine the effect of application of ABA or ABA analog as a soil drench in the fall on bud break of potted Concord grapevines the following spring. Two year old eco-dormant Concord grapevines were obtained from a Concord Nurseries in the spring. Bare-root vines were planted in 14 liter pots filled with Promix BX (available from Premier Horticulture Inc. Quakertown, Pa.) and grown outside for about 5 months (May October) prior to treatment. Plants received irrigation as needed and fertilized weekly (1 g/L all purpose fertilizer 20-20-20, The Scotts Company, Marysville, Ohio). Uniform plants were selected for the study. A total of 1000 mL of water or chemical solution was applied to the soil of each plant.
After chemical treatment, the ten replicate plants per treatment were arranged in a randomized complete block experimental design. The potted vines were surrounded by bark chips the depth of the soil in the pot to insulate the roots and prevent cold damage. The plants became dormant for the winter. In the following spring the vines were pruned to 5 buds per vine before bud break and bud break was monitored over time (Table 4). The buds were rated for bud break periodically on a scale from 1 for no growth to 6 for three or more leaves showing
Potted Concord grapevines were treated with 1000 mL water, solution containing 1000 mg ABA or solution containing 100 mg PBI-429. The dose of RBI-429 was used at one-tenth of ABA dose based on the preliminary results.

Canadice grapevines = experiment: Soil drench of potted grapevines near the time of bud break, Canadice; assay type: in vivo
Method: as §2

Concord grape vines = experiment: Spring spray of eco-dormant field grown Concord grape vines, bud break; assay type: in vivo, Concord grapevines; conditions: sprayed 2 times in spring
Method: A study was conducted to evaluate the effect of spraying eco-dormant Concord grape vines with ABA or ABA analog plus surfactants on bud break. Mature field grown Concord grape vines were sprayed to runoff 2 times in the spring after pruning and before bud swell. Three replicates of 3 vines each were treated with each treatment solution. Treatments were arranged in a randomized complete block design down a single vineyard row, Bud break was monitored by counting the number of broken buds of the distal 5 buds on 4 proximal canes on the middle vine of each 3 vine replicate. Bud break was only very slightly delayed by any of the treatments compared to the water sprayed control (Table 1).

[3] = 1000 ppm soil drench 2 days after warming, evaluated 13 days after warming
[4] = 1000 ppm soil drench 2 days after warming, evaluated 14 days after warming
[5] = 1000 ppm soil drench 2 days after warming, evaluated 15 days after warming
[6] = 1000 ppm soil drench 2 days after warming, evaluated 16 days after warming
[7] = 1000 ppm soil drench 6 days after warming, evaluated 13 days after warming
[8] = 1000 ppm soil drench 6 days after warming, evaluated 14 days after warming
[9] = 1000 ppm soil drench 6 days after warming, evaluated 15 days after warming
[10] = 1000 ppm soil drench 6 days after warming, evaluated 16 days after warming
[11] = 1000 ppm soil drench 10 days after warming, evaluated 13 days after warming
[12] = 1000 ppm soil drench 10 days after warming, evaluated 14 days after warming
[13] = 1000 ppm soil drench 10 days after warming, evaluated 15 days after warming
[14] = 1000 ppm soil drench 10 days after warming, evaluated 16 days after warming

(S)-5-(1-hydroxy-2,6,6)-trimethyl-4-oxo-2-cyclohexen-1-yl)-3-methyl-(2 Z,4E)-pentadienoic acid [ABA]
Percentage of broken floral buds (PF-11 nectarine trees [1]): 78 Percentage
Average number of fruit per tree (PF-11 nectarine trees [2]): 55
Average number of broken buds per vine (Seyval Blanc grapevines; 1000 ppm soil drench 2, 6 and 10 days after warming, evaluated 13 days after warming): 1.2
Average number of broken buds per vine (Seyval Blanc grapevines; 1000 ppm soil drench 2, 6 and 10 days after warming, evaluated 14 days after warming): 4.4
Average number of broken buds per vine (Seyval Blanc grapevines; 1000 ppm soil drench 2, 6 and 10 days after warming, evaluated 15 days after warming): 4.8
Average number of broken buds per vine (Seyval Blanc grapevines; 1000 ppm soil drench 2, 6 and 10 days after warming, evaluated 16 days after warming): 7.0
Delay of bud break (Seyval Blanc grapevines; 1000 ppm soil drench 13-16 days before bud break, cultivar not stated (Seyval Blanc and Canadice study)): 3.5 days
Average number of broken buds per vine (Seyval Blanc grapevines; [3]): 0.4
Average number of broken buds per vine (Seyval Blanc grapevines; [4]): 2.2
Average number of broken buds per vine (Seyval Blanc grapevines; [5]): 3.6
Average number of broken buds per vine (Seyval Blanc grapevines; [6]): 6.8
Average number of broken buds per vine (Seyval Blanc grapevines; [7]): 0.2
Average number of broken buds per vine (Seyval Blanc grapevines; [8]): 1.6
Average number of broken buds per vine (Seyval Blanc grapevines; [9]): 2.6
Average number of broken buds per vine (Seyval Blanc grapevines; [10]): 6.8
Average number of broken buds per vine (Seyval Blanc grapevines; [11]): 1.8
Average number of broken buds per vine (Seyval Blanc grapevines; [12]): 6.0
Average number of broken buds per vine (Seyval Blanc grapevines; [13]): 8.6
Average number of broken buds per vine (Seyval Blanc grapevines; [14]): 11.4
Average rating of bud break (1-6 scale) (Concord grapevines; Apr. 23, 2008): 1.0
Average rating of bud break (1-6 scale) (Concord grapevines; April 28): 1.6
Average rating of bud break (1-6 scale) (Concord grapevines; April 30): 1.8
Average rating of bud break (1-6 scale) (Concord grapevines; May 2): 1.8
Average rating of bud break (1-6 scale) (Concord grapevines; May 5): 2.1
Average rating of bud break (1-6 scale) (Concord grapevines; May 7): 2.6
Average rating of bud break (1-6 scale) (Concord grapevines; May 9): 2.9
Average rating of bud break (1-6 scale) (Concord grapevines; May 12): 3.0
Average rating of bud break (1-6 scale) (Concord grapevines; May 14): 3.0
Average rating of bud break (1-6 scale) (Concord grapevines; May 16): 3.4
Average rating of bud break (1-6 scale) (Concord grapevines; May 19): 4.2
Average rating of bud break (1-6 scale) (Concord grapevines; May 21): 4.6
Average rating of bud break (1-6 scale) (Concord grapevines; May 23): 4.9
Average rating of bud break (1-6 scale) (Concord grapevines; May 28): 5.4
Average number of broken buds per vine (Canadice grapevines; [3]): 0
Average number of broken buds per vine (Canadice grapevines; [4]): 0
Average number of broken buds per vine (Canadice grapevines; [5]): 0.8
Average number of broken buds per vine (Canadice grapevines; [6]): 1.2
Average number of broken buds per vine (Canadice grapevines; 1000 ppm soil drench 2 days after warming, evaluated 17 days after warming): 1.7
Average number of broken buds per vine (Canadice grapevines; 1000 ppm soil drench 2 days after warming, evaluated 18 days after warming): 1.7
Average number of broken buds per vine (Canadice grapevines; [7]): 0.2
Average number of broken buds per vine (Canadice grapevines; [8]): 0.7
Average number of broken buds per vine (Canadice grapevines; [9]): 1.2
Average number of broken buds per vine (Canadice grapevines; [10]): 1.7
Average number of broken buds per vine (Canadice grapevines; 1000 ppm soil drench 6 days after warming, evaluated 17 days after warming): 2.3
Average number of broken buds per vine (Canadice grapevines; 1000 ppm soil drench 6 days after warming, evaluated 18 days after warming): 2.5
Average number of broken buds per vine (Canadice grapevines; [11]): 0.5
Average number of broken buds per vine (Canadice grapevines; [12]): 1.8
Average number of broken buds per vine (Canadice grapevines; [13]): 2.3
Average number of broken buds per vine (Canadice grapevines; [14]): 2.3
Average number of broken buds per vine (Canadice grapevines; 1000 ppm soil drench 10 days after warming, evaluated 17 days after warming): 2.3
Average number of broken buds per vine (Canadice grapevines; 1000 ppm soil drench 10 days after warming, evaluated 18 days after warming): 2.7
Average percent broken buds (Concord grape vines; April 24, 1,000 ppm ABA plus 0.5% Brij 98): 8%
Average percent broken buds (Concord grape vines; April 24, 1,000 ppm plus 0.5% Pentrabark): 2%
Average percent broken buds (Concord grape vines; April 24, 10,000 ppm ABA plus 0.5% Brij 98): 5%
Average percent broken buds (Concord grape vines; April 30, 1,000 ppm ABA plus 0.5% Brij 98): 13%
Average percent broken buds (Concord grape vines; April 30, 1,000 ppm plus 0.5% Pentrabark): 13%
Average percent broken buds (Concord grape vines; April 30, 10,000 ppm ABA plus 0.5% Brij 98): 18%
